Read-outs that look alike come from different tables or passages of the source. Where a SMILES comes first, the peptide text is derived from it. [ ]: non-standard residue; d: D form. NMeF = CN[C@@H](Cc1ccccc1)C(=O)O; NMeL = CN[C@@H](CC(C)C)C(=O)O; dNMeL = CN[C@H](CC(C)C)C(=O)O; NMeV = CN[C@H](C(=O)O)C(C)C; Aib = CC(C)(N)C(=O)O
Assays:
[1] = Caco-2 permeability assay (apical to basolateral); assay type: in vitro ADME, human; design: Caco_R1 / Caco_R3: unit not given here
Description: (§1) Human colon adenocarcinoma-derived Caco-2 cell line was used as a model system to investigate the intestinal epithelial permeability of our designs. Caco-2 cells were propagated in T125 flasks (Corning, Merck) using Dulbecco’s modified Eagle medium supplemented with 10% (v/v) fetal bovine serum, 1% (v/v) nonessential amino acids, and 1% (v/v) penicillin-streptomycin (Gibco, Thermo Fisher Scientific) at 37°C in an atmosphere of 5% CO2. Cells were subcultured when they reached 80% confluence.
(§2) The permeability of designed peptides was evaluated using an accelerated 6-day Caco-2 permeability assay as described previously ([Sevin et al., 2013]). In brief, cells were seeded into the 12-well Transwell plates with 0.4 μm polyester membrane inserts (Corning, Merck) to give 4.0 × 10^5 cells/well. The complete assay medium contained Dulbecco’s modified Eagle medium supplemented with 10% (v/v) fetal bovine serum, 1% (v/v) nonessential amino acids, and 0.4 μg/mL puromycin. The medium in plates was renewed every second day. The inserts received 0.75 mL of assay medium in the upper compartment (apical chamber) and 1.5 mL in the bottom compartment (basolateral chamber) individually. After 6-day incubation or until the cells formed monolayers, the medium in the apical and basolateral chamber was replaced with peptide solutions at 50 μM or Hanks' Balanced Salt Solution (HBSS), separately. The plates were incubated for 90 min at 37°C on an orbital shaker (60 rpm). The peptide concentration of solutions in the apical and basolateral compartments was subsequently quantified using LC-MS (Qstar Elite, AB Sciex Australia) to evaluate the transmembrane flux of peptides in the apical-to-basolateral direction. Membrane integrity of the Caco-2 cell monolayer was validated using trans-epithelial electrical resistance (TEER) measurements before and after the assays. Atenolol and quinidine were included as negative and positive controls in all assays.

Caco-2 cells = test: Caco-2 permeability assay (apical to basolateral); assay type: in vitro ADME, human; design: Caco_R1 / Caco_R3: unit not given here
Description: as §1, §2

[2] = PAMPA
in vitro = settings: PAMPA, PAMPA_Papp_Avg
[3] = Caco-2, average of 3 replicates, read-out: Caco_Papp_Average

## CC[C@@H](C)[C@H]1NC(=O)[C@H](CC(C)C)NC(=O)[C@@H](CC(C)C)NC(=O)[C@H](C(C)C)NC(=O)[C@@H](Cc2ccccc2)N(C)C(=O)[C@@H]2CCCN2C(=O)[C@@H](CC(C)C)NC(=O)[C@H](CC(C)C)NC(=O)[C@H]2CCCN2C1=O (single isomer, unassigned) [Design D9.4.p1, LEU DILE DPRO LEU DLEU PRO *DPHE VAL DLEU]
[1]; [3]
  Papp A→B: 3.76 ×10⁻⁶ cm/s
Caco-2 cells; Caco-2 Papp, replicate 1
  Caco_R1: 3.39
Caco-2 cells; Caco-2 Papp, replicate 3
  Caco_R3: 6

## CC[C@H](C)[C@@H]1NC(=O)[C@H](Cc2ccccc2)N(C)C(=O)[C@H](CC(C)C)N(C)C(=O)[C@@H](C(C)C)NC(=O)[C@@H](C)NC(=O)[C@@H]2CCCN2C(=O)[C@@H](CC(C)C)NC(=O)[C@@H]2CCCN2C(=O)[C@H](C)NC1=O (single isomer, unassigned) [Design D9.6.p1]
[1]; [3]
  Papp A→B: 4.51 ×10⁻⁶ cm/s
Caco-2 cells; Caco-2 Papp, replicate 1
  Caco_R1: 4.759
Caco-2 cells; Caco-2 Papp, replicate 3
  Caco_R3: 4.47

## CC[C@H](C)[C@@H]1NC(=O)[C@@H](CC(C)C)NC(=O)[C@H](CC(C)C)N(C)C(=O)[C@H](Cc2ccccc2)NC(=O)CN(C)C(=O)[C@@H]2CCCN2C(=O)[C@H](C(C)C)NC(=O)[C@H](Cc2ccccc2)N(C)C(=O)[C@H]2CCCN2C(=O)[C@H](CC(C)C)NC1=O (single isomer, unassigned) [Design D10.1.p1, DLEU ILE LEU DPRO *PHE VAL PRO *GLY PHE *LEU]
[2]
  PAMPA_R1: 4.75E-06
  PAMPA_R3: 3.42E-06
In vitro
  Papp: 3.92 ×10⁻⁶ cm/s
[1]; Caco-2, Caco_Papp_Average
  Papp A→B: 8.65 ×10⁻⁶ cm/s
Caco-2 cells; Caco-2
  Caco_R1: 8.51
  Caco_R3: 8.51

## CC[C@H](C)[C@@H]1NC(=O)[C@@H](CC(C)C)NC(=O)[C@H](CC(C)C)N(C)C(=O)[C@H](Cc2ccccc2)NC(=O)CN(C)C(=O)[C@@H]2CCCN2C(=O)[C@H](C(C)C)NC(=O)[C@H](Cc2ccccc2)N(C)C(=O)[C@H]2CCCN2C(=O)[C@H](CC(C)C)NC1=O (single isomer, unassigned) [Design D10.1.p2, DLEU ILE LEU DPRO *PHE VAL PRO *GLY PHE *LEU]
[1]; [3]
  Papp A→B: 3.6 ×10⁻⁶ cm/s
Caco-2 cells; Caco-2 Papp, replicate 1
  Caco_R1: 2.58
Caco-2 cells; Caco-2 Papp, replicate 3
  Caco_R3: 4.01

## CC(C)C[C@@H]1NC(=O)[C@@H]2CCCN2C(=O)[C@@H](Cc2ccccc2)NC(=O)[C@H](C)N(C)C(=O)[C@H](CC(C)C)NC(=O)[C@H](CC(C)C)N(C)C(=O)[C@@H](C)NC(=O)[C@@H](CC(C)C)NC(=O)[C@@H]2CCCN2C(=O)[C@@H](Cc2ccccc2)NC1=O (single isomer, unassigned) [Design D10.2.p1, LEU DPHE PRO DLEU DALA *LEU LEU *ALA DPHE PRO]
[2]
  PAMPA_Papp_Avg: 3.92E-06
  PAMPA_R1: 4.51E-06
  PAMPA_R3: 3.88E-06
[1]; Caco-2, Caco_Papp_Average
  Papp A→B: 9.76 ×10⁻⁶ cm/s
Caco-2 cells; Caco-2
  Caco_R1: 8.83
  Caco_R3: 11.73

## CC[C@H](C)[C@@H]1NC(=O)[C@@H](C(C)C)NC(=O)[C@@H]2CCCN2C(=O)[C@@H](CC(C)C)N(C)C(=O)[C@@H](C(C)C)NC(=O)[C@H](CC(C)C)N(C)C(=O)[C@H]2CCCN2C(=O)[C@@H](C)NC(=O)[C@H](Cc2ccccc2)N(C)C(=O)[C@H]2CCCN2C1=O (single isomer, unassigned) [Design D10.3.p1, ILE DPRO *PHE DALA DPRO *LEU DVAL *DLEU PRO DVAL]
[2]
  PAMPA_R1: 3.04E-06
  PAMPA_R3: 1.85E-06
In vitro
  Papp: 2.52 ×10⁻⁶ cm/s
[1]; Caco-2, Caco_Papp_Average
  Papp A→B: 3.15 ×10⁻⁶ cm/s
Caco-2 cells; Caco-2
  Caco_R1: 1.3
  Caco_R3: 6.15

## CC[C@H](C)[C@@H]1NC(=O)[C@@H](C(C)C)NC(=O)[C@@H]2CCCN2C(=O)[C@@H](CC(C)C)N(C)C(=O)[C@@H](C(C)C)NC(=O)[C@H](CC(C)C)N(C)C(=O)[C@H]2CCCN2C(=O)[C@@H](C)NC(=O)[C@H](Cc2ccccc2)N(C)C(=O)[C@H]2CCCN2C1=O (single isomer, unassigned) [Design D10.3.p2, ILE DPRO *PHE DALA DPRO *LEU DVAL *DLEU PRO DVAL]
[1]; [3]
  Papp A→B: 4.43 ×10⁻⁶ cm/s
Caco-2 cells; Caco-2 Papp, replicate 1
  Caco_R1: 4.05
Caco-2 cells; Caco-2 Papp, replicate 3
  Caco_R3: 2.63

## CC(C)C[C@@H]1C(=O)N(C)[C@@H](CC(C)C)C(=O)N2CCC[C@@H]2C(=O)N[C@H](CC(C)C)C(=O)N[C@H](C)C(=O)N2CCC[C@@H]2C(=O)N2CCC[C@H]2C(=O)N[C@@H](C)C(=O)N[C@H](Cc2ccccc2)C(=O)N[C@H](CC(C)C)C(=O)N[C@@H](C(C)C)C(=O)N1C (single isomer, unassigned) [Design D11.9.p2, VAL *DLEU *LEU DPRO DLEU DALA DPRO PRO ALA DPHE DLEU]
[2]
  PAMPA_Papp_Avg: BQL
  PAMPA_R1: BQL
  PAMPA_R3: BQL
[1]; Caco-2, Caco_Papp_Average
  Papp A→B: 4.03 ×10⁻⁶ cm/s
Caco-2 cells; Caco-2
  Caco_R1: 2.62
  Caco_R3: 4.02

## CC(C)C[C@@H]1NC(=O)[C@@H](CC(C)C)NC(=O)[C@H]2CCCN2C(=O)[C@H](CC(C)C)NC(=O)[C@@H](CC(C)C)NC(=O)[C@H](CC(C)C)NC(=O)[C@@H]2CCCN2C(=O)[C@@H](C)NC1=O [Design D8.1, DLEU LEU DPRO DLEU LEU DALA PRO LEU] (cyclo(L[dA]PL[dL]L[dP][dL]))
[2]
  PAMPA_R1: 7.08E-06
  PAMPA_R3: 6.42E-06
In vitro
  Papp: 6.94 ×10⁻⁶ cm/s
[1]; Caco-2
  Papp: 23.3 ×10⁻⁶ cm/s
[1]; Caco-2, Caco_Papp_Average
  Papp A→B: 23.3 ×10⁻⁶ cm/s
Caco-2 cells; Caco-2
  Caco_R1: 27.58
  Caco_R3: 23.71

## CC[C@@H](C)[C@H]1NC(=O)[C@@H](CC(C)C)NC(=O)C(C)(C)NC(=O)[C@@H]2CCCN2C(=O)[C@@H]([C@H](C)CC)NC(=O)[C@@H](CC(C)C)NC(=O)C(C)(C)NC(=O)[C@@H]2CCCN2C1=O [Design D8.2, PRO AIB DLEU DILE PRO AIB DLEU DILE] (cyclo([Aib][dL][dI]P[Aib][dL][dI]P))
[2]
  PAMPA_R1: 7.36E-06
  PAMPA_R3: 1.04E-05
In vitro
  Papp: 7.49 ×10⁻⁶ cm/s
[1]; Caco-2, Caco_Papp_Average
  Papp A→B: 11.7 ×10⁻⁶ cm/s
Caco-2 cells; Caco-2
  Caco_R1: 8.98
  Caco_R3: 13.19

## CC[C@@H](C)[C@H]1NC(=O)[C@@H](CC(C)C)NC(=O)[C@@H](CC(C)C)N(C)C(=O)[C@@H]2CCCN2C(=O)[C@@H](C(C)C)NC(=O)[C@@H](CC(C)C)NC(=O)[C@@H](CC(C)C)N(C)C(=O)[C@@H]2CCCN2C1=O [Design D8.3.p2, DLEU DVAL PRO *DLEU DLEU DILE PRO *DLEU] (cyclo(P[dNMeL][dL][dI]P[dNMeL][dL][dV]))
[2]
  PAMPA_Papp_Avg: BQL
  PAMPA_R1: BQL
  PAMPA_R3: BQL
[1]; Caco-2, Caco_Papp_Average
  Papp A→B: 2.73 ×10⁻⁶ cm/s
Caco-2 cells; Caco-2
  Caco_R1: 4.06
  Caco_R3: 1.54

## CC(C)C[C@@H]1NC(=O)[C@@H](C(C)C)NC(=O)[C@H](Cc2ccccc2)N(C)C(=O)[C@H]2CCCN2C(=O)[C@H]2CCCN2C(=O)[C@@H](C)NC(=O)[C@H](Cc2ccccc2)N(C)C(=O)[C@H]2CCCN2C(=O)[C@@H](C(C)C)NC(=O)[C@@H]2CCCN2C1=O [Design D10.4, *PHE DVAL LEU PRO DVAL DPRO *PHE DALA DPRO DPRO] (cyclo(LP[dV][dP][NMeF][dA][dP][dP][NMeF][dV]))
[1]; [3]
  Papp A→B: 0.627 ×10⁻⁶ cm/s
Caco-2 cells; Caco-2 Papp, replicate 1
  Caco_R1: 1.39
Caco-2 cells; Caco-2 Papp, replicate 3
  Caco_R3: 0.49

## CC(C)C[C@H]1C(=O)N2CCC[C@@H]2C(=O)N(C)[C@@H](C(C)C)C(=O)N[C@@H](C(C)C)C(=O)N2CCC[C@H]2C(=O)N2CCC[C@@H]2C(=O)N[C@@H](C)C(=O)N[C@H](C(C)C)C(=O)N(C)[C@@H](CC(C)C)C(=O)N[C@@H](C)C(=O)N1C [Design D10.5, PRO DPRO ALA DVAL *LEU ALA *LEU DPRO *VAL VAL] (cyclo(A[NMeL][dP][NMeV]VP[dP]A[dV][NMeL]))
[1]; [3]
  Papp A→B: 0.497 ×10⁻⁶ cm/s
Caco-2 cells; Caco-2 Papp, replicate 1
  Caco_R1: 1.31
Caco-2 cells; Caco-2 Papp, replicate 3
  Caco_R3: 0.08

Reference: publication PMC9490236, “Accurate de novo design of membrane-traversing macrocycles” (Cell, 2022)
